Results published in PubChem BioAssay (NCI).
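Test compounds were applied to cells in 96-well plates for 48 hours at 5 doses. Here, GI50 denotes the concentration required for 50% inhibition of growth. TGI marks complete inhibition of growth.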

Key:
Assay in all cases: NCI tumour cell line growth inhibition, 48 h
SF-268 CNS = system: SF-268 CNS
HCT-116 colon = system: HCT-116 colon
A498 renal = system: A498 renal
OVCAR-4 ovarian = system: OVCAR-4 ovarian
LOX IMVI melanoma = system: LOX IMVI melanoma
DU-145 prostate = system: DU-145 prostate
EKVX NSCLC = system: EKVX NSCLC
OVCAR-5 ovarian = system: OVCAR-5 ovarian
NCI-H460 lung = system: NCI-H460 lung
NCI/ADR-RES ovarian = system: NCI/ADR-RES ovarian
SK-MEL-2 melanoma = system: SK-MEL-2 melanoma
A549 NSCLC = system: A549 NSCLC
SNB-75 CNS = system: SNB-75 CNS
COLO 205 colon = system: COLO 205 colon
NCI-H23 lung = system: NCI-H23 lung
CCRF-CEM leukemia = system: CCRF-CEM leukemia
OVCAR-3 ovarian = system: OVCAR-3 ovarian
IGROV1 ovarian = system: IGROV1 ovarian
T-47D breast = system: T-47D breast
OVCAR-8 ovarian = system: OVCAR-8 ovarian
BT-549 breast = system: BT-549 breast
786-0 renal = system: 786-0 renal
HOP-92 NSCLC = system: HOP-92 NSCLC
SF-295 CNS = system: SF-295 CNS
SW-620 colon = system: SW-620 colon
SK-MEL-5 melanoma = system: SK-MEL-5 melanoma
M14 melanoma = system: M14 melanoma
UACC-257 melanoma = system: UACC-257 melanoma
MOLT-4 leukemia = system: MOLT-4 leukemia
SK-OV-3 ovarian = system: SK-OV-3 ovarian
RPMI-8226 leukemia = system: RPMI-8226 leukemia
MDA-MB-231 breast = system: MDA-MB-231 breast
MCF7 breast = system: MCF7 breast
SK-MEL-28 melanoma = system: SK-MEL-28 melanoma
MALME-3M melanoma = system: MALME-3M melanoma
TK-10 renal = system: TK-10 renal
KM12 colon = system: KM12 colon
PC-3 prostate = system: PC-3 prostate
HOP-62 NSCLC = system: HOP-62 NSCLC
U251 CNS = system: U251 CNS
HT29 colon = system: HT29 colon
NCI-H226 lung = system: NCI-H226 lung
HL-60(TB) leukemia = system: HL-60(TB) leukemia
NCI-H522 lung = system: NCI-H522 lung
RXF 393 renal = system: RXF 393 renal
SNB-19 CNS = system: SNB-19 CNS
K-562 leukemia = system: K-562 leukemia
MDA-MB-435 = system: MDA-MB-435
CAKI-1 renal = system: CAKI-1 renal
UO-31 renal = system: UO-31 renal
SN12C renal = system: SN12C renal
HCT-15 colon = system: HCT-15 colon
HS 578T breast = system: HS 578T breast
HCC-2998 colon = system: HCC-2998 colon
UACC-62 melanoma = system: UACC-62 melanoma
ACHN renal = system: ACHN renal

NC(N)=NN=C(c1ccccc1)c1ccccc1
GI50 (SF-268 CNS): 6.8 µM | TGI (SF-268 CNS): > 100 µM | GI50 (HCT-116 colon): 3.53 µM | TGI (HCT-116 colon): 89.7 µM | GI50 (A498 renal): 3.49 µM | TGI (A498 renal): > 100 µM | GI50 (OVCAR-4 ovarian): 5.16 µM | TGI (OVCAR-4 ovarian): 93.6 µM | GI50 (LOX IMVI melanoma): 6.09 µM | TGI (LOX IMVI melanoma): 51.8 µM | GI50 (DU-145 prostate): 3.45 µM | TGI (DU-145 prostate): > 100 µM | GI50 (EKVX NSCLC): 6.82 µM | TGI (EKVX NSCLC): > 100 µM | GI50 (OVCAR-5 ovarian): 7.94 µM | TGI (OVCAR-5 ovarian): > 100 µM | GI50 (NCI-H460 lung): 3.51 µM | TGI (NCI-H460 lung): 17.3 µM | GI50 (NCI/ADR-RES ovarian): 19.7 µM | TGI (NCI/ADR-RES ovarian): > 100 µM | GI50 (SK-MEL-2 melanoma): 2.16 µM | TGI (SK-MEL-2 melanoma): 13.9 µM | GI50 (A549 NSCLC): 4.03 µM | TGI (A549 NSCLC): > 100 µM | GI50 (SNB-75 CNS): 3.49 µM | TGI (SNB-75 CNS): > 100 µM | GI50 (COLO 205 colon): 1.91 µM | TGI (COLO 205 colon): 4.19 µM | GI50 (NCI-H23 lung): 6.04 µM | TGI (NCI-H23 lung): > 100 µM | GI50 (CCRF-CEM leukemia): 4.38 µM | TGI (CCRF-CEM leukemia): > 100 µM | GI50 (OVCAR-3 ovarian): 2.15 µM | TGI (OVCAR-3 ovarian): 5.49 µM | GI50 (IGROV1 ovarian): 4.32 µM | TGI (IGROV1 ovarian): 87.6 µM | GI50 (T-47D breast): 6.65 µM | TGI (T-47D breast): > 100 µM | GI50 (OVCAR-8 ovarian): 3.87 µM | TGI (OVCAR-8 ovarian): 39.8 µM | GI50 (BT-549 breast): 5.51 µM | TGI (BT-549 breast): 65.3 µM | GI50 (786-0 renal): 4.71 µM | TGI (786-0 renal): 36.2 µM | GI50 (HOP-92 NSCLC): 2.14 µM | TGI (HOP-92 NSCLC): 55.1 µM | GI50 (SF-295 CNS): 2.9 µM | TGI (SF-295 CNS): 16 µM | GI50 (SW-620 colon): 3.63 µM | TGI (SW-620 colon): 41.5 µM | GI50 (SK-MEL-5 melanoma): 3.06 µM | TGI (SK-MEL-5 melanoma): 14.7 µM | GI50 (M14 melanoma): 2.64 µM | TGI (M14 melanoma): 9.3 µM | GI50 (UACC-257 melanoma): 9.79 µM | TGI (UACC-257 melanoma): 41.9 µM | GI50 (MOLT-4 leukemia): 8.82 µM | TGI (MOLT-4 leukemia): 91.7 µM | GI50 (SK-OV-3 ovarian): 3.31 µM | TGI (SK-OV-3 ovarian): 23.7 µM | GI50 (RPMI-8226 leukemia): 3.97 µM | TGI (RPMI-8226 leukemia): 17.8 µM | GI50 (MDA-MB-231 breast): 4.3 µM | TGI (MDA-MB-231 breast): 40.8 µM | GI50 (MCF7 breast): 2.28 µM | TGI (MCF7 breast): 41.7 µM | GI50 (SK-MEL-28 melanoma): 5.82 µM | TGI (SK-MEL-28 melanoma): 36.9 µM | GI50 (MALME-3M melanoma): 2.99 µM | TGI (MALME-3M melanoma): 19.1 µM | GI50 (TK-10 renal): 5.75 µM | TGI (TK-10 renal): > 100 µM | GI50 (KM12 colon): 2.53 µM | TGI (KM12 colon): 20 µM | GI50 (PC-3 prostate): 2.95 µM | TGI (PC-3 prostate): > 100 µM | GI50 (HOP-62 NSCLC): 6.75 µM | TGI (HOP-62 NSCLC): > 100 µM | GI50 (U251 CNS): 3.5 µM | TGI (U251 CNS): 24.6 µM | GI50 (HT29 colon): 2.89 µM | TGI (HT29 colon): 17.8 µM | GI50 (NCI-H226 lung): 14.1 µM | TGI (NCI-H226 lung): > 100 µM | GI50 (HL-60(TB) leukemia): 3.11 µM | TGI (HL-60(TB) leukemia): 12.1 µM | GI50 (NCI-H522 lung): 2.38 µM | TGI (NCI-H522 lung): 8.51 µM | GI50 (RXF 393 renal): 1.71 µM | TGI (RXF 393 renal): 3.93 µM | GI50 (SNB-19 CNS): 7.69 µM | TGI (SNB-19 CNS): > 100 µM | GI50 (K-562 leukemia): 4.35 µM | TGI (K-562 leukemia): 27.5 µM | GI50 (MDA-MB-435): 0.612 µM | TGI (MDA-MB-435): 2.94 µM | GI50 (CAKI-1 renal): 3.77 µM | TGI (CAKI-1 renal): > 100 µM | GI50 (UO-31 renal): 4.48 µM | TGI (UO-31 renal): > 100 µM | GI50 (SN12C renal): 6.25 µM | TGI (SN12C renal): > 100 µM | GI50 (HCT-15 colon): 3.25 µM | TGI (HCT-15 colon): > 100 µM | GI50 (HS 578T breast): 1.78 µM | TGI (HS 578T breast): 7.91 µM | GI50 (HCC-2998 colon): 4.49 µM | TGI (HCC-2998 colon): 20.4 µM | GI50 (UACC-62 melanoma): 4.64 µM | TGI (UACC-62 melanoma): 42.5 µM | GI50 (ACHN renal): 4.13 µM | TGI (ACHN renal): > 100 µM
